Legend:
[1] = test system: donor-derived blood lineages; experiment: Functional and phenotypic analyses of donor-derived blood lineages in primary transplant; format: in vivo, mouse
Experimental: Pulsating blood vessels like conditions were stimulated in vitro using Flexcell FX-4000 machine. To analyze roles of pharmacological targets in regulating the endothelial-to-HSC transition, mouse embryo-derived AGM or whole mouse embryo were exposed ex vivo with biomechanical stretching, chemicals, or drugs. Next, hematopoietic colony formation assays were performed by incubating mouse AGM-derived cells in StemCell M3434 media for seven days. Serial transplantation of AGM-derived HSCs in lethally irradiated SJL mice were performed. The stem cell frequency upon biomechanical stretching was analyzed using a limiting dilution assay. To characterize properties of AGM-HSC-derived blood cells in primary transplants, percentage chimerism and reconstitution was measured using FACS, globin transcripts were analyzed using quantitative reverse transcriptase-PCR, myeloperoxidase amount was measured using PicoKine ELISA kit, TCR-β rearrangement was analyzed using PCR for TCR-β locus, pre-immune IG detection was analyzed using Thermo-Fisher Mouse Ig Isotyping kit, and delayed-type hypersensitivity was analyzed by injecting sheep RBC (Rockland Immunochemicals) in the footpad of pre-sensitized mice.
FACS was used to sort erythroid precursors (Cd45.2^+, Ter119^+, Cd71^+) from the unlysed bone marrow isolated from AGM-transplanted mice. Total RNA was isolated using the RNAeasy Minikit (QIAGEN) and cDNA synthesis performed using Superscript III (Invitrogen). Quantitative real-time PCR was performed using SYBR Green (QuantaBio) on an MX3000P machine with the indicated primers (Sankaran et al., 2009). We normalized the expression to that of glyceraldehyde-3-phosphate-dehydrogenase (Gapdh) (Ochida et al., 2010).
Neutrophils (Cd45.2^+, Gr1^+, Mac1^+) were FACS sorted from the isolated bone marrow of 16 week-primary transplanted mice and cultured in IMDM with 10% FBS overnight (500,000 cells/mL) in 24-well plates. Supernatant was collected and the MPO concentration measured using the Mouse MPO/Myeloperoxidase PicoKine™ ELISA Kit (Boster). The MPO concentration was also measured in blood serum.
T cells (Cd45.2^+, Cd3^+) and myeloid cells (Cd45.2^+, Mac1^+) were FACS sorted from the splenocytes of 16 week-primary transplanted mice. Next, genomic DNA was extracted, and PCR performed for DH (β2.1-JH (32.7 rearrangements within TCR-β locus. Our samples were denatured (94° C., 1 min), annealed (63° C., 2 mins) and extended (72° C., 2 mins) for 35 cycles. Primer sequences are as follows:
Transplant mice were sensitized with sheep red blood cells (sRBC, 10^9 cells/mL, 50 μL per site, Rockland Immunochemicals) through subcutaneous (lower back) and intradermal injections (right footpad). […] After 48 hours of the challenge, the footpad thickness was measured with a micro-caliper. […]

Dnmt3b = Dnmt3b protein level in nuclear fractions of E11.5 AGM cells; format: cell-based, mouse
Experimental: RNA-sequencing analyses were performed to measure gene expression patterns in mouse AGM treated with cyclic strain or pharmacological modulators. Using computational algorithms, hierarchical clustering was performed of differentially expressed genes as well as measured their overrepresented biological processes and pathways. Gene expression clusters of differentially expressed genes were analyzed and their mean expression level across cell populations compared. Next, Venn comparison of up- and down-genes was constructed to analyze candidate(s) important for cyclic strain- or pharmacological modulator(s)-mediated the endothelial-to-HSC transition. Furthermore, Dnmt3b and Dnmt3a protein expressions were analyzed in nuclear fractions of mouse AGM cells using EqiQuick assay kits. Data are presented as mean±s.d. unless otherwise noted. Statistical analyses were performed by paired or un-paired Student's t-tests. Significance was set at P<0.05.
Nuclear extracts from AGM explants were harvested using an EpiQuik Nuclear Extraction Kit (Epigentek Group Inc.). Dnmt3b and Dnmt3a protein levels were analyzed using a colorimetric EpiQuik Assay Kit (Epigentek Group Inc.), according to the manufacturer's instructions. Concentration of Dnmt3b and Dnmt3a is relative to 1 μg of nuclear extract proteins.

## Clc1cccc(Cl)c1CSc1nnc(-c2cnccn2)s1 [Yoda1, 2-[5-[[(2,6-Dichlorophenyl)methyl]thio]-1,3,4-thiadiazol-2-yl]-pyrazine]
[1]; bone marrow Cd71+Ter119+ sorted cells, primary transplant
  expression of adult and embryonic hemoglobin types in donor erythroid cells: reconstitutes to red cells containing adult hemoglobin
[1]; bone marrow Gr1+Mac1+ sorted cells, overnight culture, ELISA
  myeloperoxidase (MPO) of donor neutrophils: reconstitute to functional myeloid cells displaying sufficient MPO levels
[1]; primary transplant mice, footpad
  delayed-type hypersensitivity: possess T-cell mediated immune response
[1]; spleen-sorted Cd3+ T cells
  TCRβ locus rearrangement of donor T cells: display T-cell receptor β (TCR β) rearrangement
Dnmt3b
  Dnmt3b protein expression: specifically stimulates Dnmt3b protein expression levels

— patent US20230041065A1, “METHODS FOR GENERATING HEMATOPOIETIC STEM CELLS” (The Brigham and Women`s Hospital, Inc., priority 2019, published 2023)
